From PMC8605905 (Oxidative Medicine and Cellular Longevity, 2021)
Entries after “also recorded” stand apart in the source; their conditions may differ. Read-outs that look alike come from different tables or passages of the source.

Columns and labels:
Aβ-GFP SH-SY5Y cells [1] = experiment: Real-time PCR of Aβ-GFP RNA; type: cell-based, Human; conditions: 5 μM
Method: To measure the Aβ-GFP/tauRD-DsRed RNA expression on day 8, total RNA was extracted from collected cells and reverse-transcribed to cDNA (SuperScript III reverse transcriptase; Invitrogen, Waltham, MA, USA). Real-time quantitative PCR was performed using 100 ng of cDNA and the gene-specific TaqMan fluorogenic probe PN4331348 (EGFP) or customized Assays-by-Design probe for DsRed and 4326321E (HPRT1) (StepOnePlus Real-time PCR system, Applied Biosystems, Foster City, CA, USA). The RNA expression level was calculated using the formula 2^ΔCt, ΔCT = CT (control) − CT (target), in which CT indicates the cycle threshold.

[2] = Mouse pharmacokinetics study and brain/plasma ratio; type: in vivo, Male Crl:CD-1 (ICR) mice; conditions: for half-life: read-out: t1/2 (elimination half-life) (converted); for AUC(0-inf): iv, 5 mg/kg
Method: Male Crl:CD-1 (ICR) mice (8 weeks old) weighing 25–30 g were housed in cages with ad libitum access to food and drinking water on a 12 : 12 h light-dark cycle. All animal experiments were performed in accordance with the guidelines approved by the Rosetta Pharmamate Institutional Animal Care and Use Committee (IACUC Approval No: AF20015). Mice were randomly divided into 7 subgroups (6 time points and 1 vehicle control; n = 3 per subgroup). LM-021 (in 5% DMSO and 19% hydroxypropyl-β-cyclodextrin) was administered intravenously (IV) at 5 mg/kg dose in volume of 10 ml/kg. Mice were euthanized in a CO2 chamber at 0.25, 0.5, 1, 2, 4, or 8 h postdose. Whole blood was collected via facial veins in heparin-coated polypropylene tubes, and plasma was obtained by centrifugation (1000 × g for 15 min at 4°C) within 60 min of collection. After cerebral vasculature perfusion through the left ventricle with normal saline for 5 min, the whole brain was quickly excised and weighed. Plasma and brain samples were rapidly frozen and stored at −70°C until analysis (see supplementary materials).
Pharmacokinetic (PK) parameters, including plasma concentration following IV dose (C0), elimination half-life (T1/2), mean residence time (MRT), and area under the concentration- (AUC-) time curve from time 0 extrapolated to infinity (AUC(0-∞)), were estimated using noncompartmental pharmacokinetic parameter analysis with Phoenix WinNonlin software (version 8.2, Pharsight Corporation, Mountain View, CA, USA). In addition, the ratio of brain/plasma was calculated from the area under the curve for brain and plasma concentrations.
Supplementary Description
Preparation and analysis of mouse plasma and brain homogenate samples. A solvent-based protein precipitation procedure was used for analyzing plasma and brain homogenate samples. A 20-μl aliquot of each plasma sample was mixed with 60 μl of acetonitrile. For brain samples, collected brains were homogenized in 3 volumes of methanol, and then 50 μl of brain homogenate was mixed with 50 μl of acetonitrile.
After vortexing and centrifugation (20,000 × g for 5 min), the extracted supernatants were collected. Liquid chromatography – tandem mass spectrometry (LC-MS/MS) analyses was performed using an Agilent 1200 (Agilent Technologies, Palo Alto, CA, USA) coupled to a QTrap 5500 triple-quadrupole mass spectrometer (AB SCIEX, Foster City, CA, USA). Chromatographic separation was performed on an Eclipse Plus C18 column (3.5 µm; 4.6 × 50 mm; Agilent Technologies) with the mobile phase performed at a constant flow rate of 1.0 ml/min using a binary solvent system: solvent A, 5 mM ammonium acetate; solvent B, acetonitrile. The transition (precursor ion to daughter ion) monitored was m/z 336.2 → 321.0 for LM-021. Multiple reaction monitoring (MRM) data were acquired, and the chromatograms were integrated using Analyst 1.6.3 software (Applied Biosystems). A weighted (1/x) linear regression was used to generate the calibration curves from standards and to calculate the sample […]
concentrations. […]

[3] = system: ∆K280 tauRD-DsRed SH-SY5Y cells; experiment: High content analysis of neurite outgrowth in ΔK280 tauRD-DsRed cells; type: cell-based, Human; conditions: 10 μM
Aβ-GFP SH-SY5Y cells [4] = experiment: High content analysis of neurite outgrowth in Aβ-GFP cells; type: cell-based, Human; conditions: 5 μM
Method: On day 1, Aβ-GFP or ∆K280 tauRD-DsRed SH-SY5Y cells were plated into 24-well plates (6 × 10^4/well) followed by addition of retinoic acid. On day 2, cells were treated with coumarin-chalcone derivatives (5 or 10 μM) and with doxycycline (5 or 2 μg/ml) to induce the expression of Aβ-GFP or ∆K280 tauRD-DsRed. On day 8, 4% paraformaldehyde, 0.1% Triton X-100, and 3% BSA were used to fix, permeabilize, and block cells, respectively. Subsequently, the cells were stained with TUBB3 (neuronal class III β-tubulin) primary antibody (1 : 1000; Covance, Princeton, NJ, USA) at 4°C overnight. Goat anti-rabbit Alexa Fluor 555 secondary antibody (1 : 1000; Thermo Fisher Scientific) was then added, followed by a 3 h incubation at room temperature. Following staining nuclei with 4′,-6-diamidino-2-phenylindole (DAPI) (0.1 μg/ml; Sigma-Aldrich), the neurons were imaged by using the HCA system and analysed by using the Neurite Outgrowth Application Module (MetaXpress; Molecular Devices).
To monitor the cAMP-mediated signal transduction pathway, CRE-GFP 293 cells in 6-well plates (1 × 10^6/well) were pretreated with kinase inhibitor H-89 (LC Laboratories, Woburn, MA, USA), KN-62 (Cayman Chemical, Ann Arbor, MI, USA), U0126 (LC Laboratories), or wortmannin (LC Laboratories) (10 μM) for 4 h before forskolin or LM-021 (10 μM) addition for 5 h. GFP fluorescence/protein and total/phosphorylated PKA, CaMKII, ERK, PI3K, and CREB levels were examined. In addition, Aβ-GFP or ∆K280 tauRD-DsRed SH-SY5Y cells were treated with retinoic acid (10 μM) on day 1, followed by the addition of LM-021 (5 or 10 μM) and doxycycline (5 or 2 μg/ml) on day 2, as described. Kinase inhibitors (10 μM) were added on day 6. On day 8, the cells were collected for protein expression analysis of BDNF, BCL2 (BCL2 apoptosis regulator), and BAX (BCL2 associated X, apoptosis regulator), and total/phosphorylated PKA, CaMKII, ERK, PI3K, and CREB. Also, cells were stained with DAPI and assessed for neurite outgrowth as described above.

[5] = Crl:CD-1 (ICR), mouse, plasma, ICR male mice, IV 5 mg/kg

With `CN(C)c1ccc(/C=C/C(=O)c2c(O)c3ccccc3oc2=O)cc1` [LM-021, (E)-3-(3-(4-(dimethylamino)phenyl)acryloyl)-4-hydroxy-2H-chromen-2-one] the “Aβ-GFP RNA levels” value (Aβ-GFP SH-SY5Y cells [1]) was “did not significantly modify”, the half-life ([2]; Crl:CD-1 (ICR), mouse, brain, ICR male mice, IV 5 mg/kg) was 2.17 ± 0.67 h and the C0 [2, 5] was 20400 ± 9480 ng/mL. The MRT [2, 5] was 3.54 ± 0.93 h, the clearance [2, 5] was 1.85 ± 0.12 mL/min/kg and the Vd ([2]; Crl:CD-1 (ICR), mouse, plasma, ICR male mice, IV 5 mg/kg, read-out: Vss) was 0.39 ± 0.08 L/kg. The half-life [2, 5] was 2.54 ± 0.79 h, the Brain/plasma ratio ([2]; calculated by the AUC(0-∞) ratios, ICR male mice, IV 5 mg/kg) was 0.053 and the Kp ([2]; male, Crl:CD-1 (ICR), mouse, brain and plasma, mice, IV 5 mg/kg) was 0.053. The AUC(0-inf) ([2]; male, Crl:CD-1 (ICR), mouse, brain, brain (tissue density assumed 1 g/ml), ICR male mice, IV 5 mg/kg, read-out: AUC(0-∞)) was 2380 ± 34 ng·h/mL, the AUC(0-inf) ([2]; male, Crl:CD-1 (ICR), mouse, brain, brain, mice, intravenous bolus 5 mg/kg, read-out: Systemic exposure (AUC0-∞)) was 2380 ± 30 ng·h/mL and the AUC(0-inf) ([2]; male, Crl:CD-1 (ICR), mouse, plasma, plasma, ICR male mice, IV 5 mg/kg, read-out: AUC(0-∞)) was 45300 ± 2830 ng·h/mL. For the same compound, the AUC(0-inf) ([2]; male, Crl:CD-1 (ICR), mouse, plasma, plasma, mice, intravenous bolus 5 mg/kg, read-out: Systemic exposure (AUC0-∞)) was 45300 ± 2830 ng·h/mL, the “Plasma clearance as share of cardiac output blood flow of mice (400 ml/min/kg)” value ([2]; mice, IV 5 mg/kg) was “about 0.5%” and the “Neurite length and branches” value [3] was “successfully ameliorated; also recorded: ameliorated the defects”. For the same compound, the “Neurite length, processes, and branches” value (Aβ-GFP SH-SY5Y cells [4]) was “successfully ameliorated; also recorded: salvaged”.
